Data from patent US10632125B2, “MTH1 inhibitors for treatment of inflammatory and autoimmune conditions” (THOMAS HELLEDAYS STIFTELSE FÖR MEDICINSK FORSKNING, priority 2014, dated 2020).

Biological target: MTH1 (Homo sapiens, UniProt P36639)
Experiment: MTH1 enzymatic assay (malachite green, coupled to pyrophosphatase)
Assay type: biochemical
Conditions: dGTP 100 μM, MTH1 6 nM; 96- or 384-well format; read-out: IC50
Experimental: MTH1 catalyzes the hydrolysis of dGTP to dGMP and PPi. By coupling the reaction to pyrophosphatase added in excess PPi is converted to Pi that can be detected by using the malachite green assay reagent. […] 96-well method: Briefly, the compound to be analyzed is diluted in DMSO in a 1:3 dilution series generating 12 different compound concentrations giving a final DMSO concentration of 1% in the assay well. MTH1 diluted in assay buffer (100 mM Tris-acetate, 40 mM NaCl, 10 mM magnesium acetate, 1 mM DTT and 0.005% Tween 20) fortified with E. coli pyrophosphatase (0.2 U/ml) is added to a final concentration of 6 nM. dGTP diluted in assay buffer is added to a final concentration of 100 μM. The reaction mixture is incubated for 15 minutes at 22° C. To 100 μl reaction mixture, 25 μl Malachite green assay regent (0.095% Malachite green in 17% H2SO4, 1.5% Ammonium molybdate, 0.17% Tween 20) is added, followed by incubation with shaking for 15 minutes at 22° C. The absorbance of the assay plate is read at 630 nm using a Hidex Sense Multilabel plate reader. The IC50 value is determined by fitting a dose response curve to the data points using nonlinear regression analysis and the equation Y=Bottom+(Top-Bottom)/(1+10^((Log IC50−X)*HillSlope)), where Y is the read absorbance at 630 nm and X is log [compound].
384-Well Method: The compounds to be tested are nano-dispensed, in 11 concentrations, directly in assay plates, with a final DMSO concentration <1%. The protocol and the reaction mixture are the same as for the 96-well assay, with a total reaction volume of 50 μl/well to which 10 μl of Malachite green reagent is added. All additions to the assay plates are made with multidrop.

In the case of `CNc1cc(-c2cc(OC)cc(Cl)c2Cl)nc(N)n1` [Example 99, 6-(2,3-dichloro-5-methoxyphenyl)-4-N-methylpyrimidine-2,4-diamine], the IC50 is reported as < 200 nM.
For `CNc1cc(-c2ccc(O)cc2)nc(N)n1` [Example 100, 4-[2-amino-6-(methylamino)pyrimidin-4-yl]phenol], the IC50 was < 200 nM.
For `CNc1cc(-c2ccc(C(=O)N3CCOCC3)c(Cl)c2)nc(N)n1` [Example 104, 6-[3-chloro-4-(morpholine-4-carbonyl)phenyl]-4-N-methylpyrimidine-2,4-diamine], the IC50 was < 200 nM.
In the case of `CNc1cc(-c2ccc(/C=C/C(=O)OC)cc2)nc(N)n1` [Example 106, methyl (2E)-3-{4-[2-amino-6-(methylamino)pyrimidin-4-yl]phenyl}prop-2-enoate], the IC50 is reported as < 200 nM.
With `CNc1cc(-c2cccc(/C=C/C(=O)OC)c2)nc(N)n1` [Example 107, methyl (2E)-3-{3-[2-amino-6-(methylamino)pyrimidin-4-yl]phenyl}prop-2-enoate] the IC50 was < 200 nM.
In the case of `CNc1cc(-c2ccc(C(C)=O)cc2)nc(N)n1` [Example 109, 1-(4-(2-Amino-6-(methylamino)pyrimidin-4-yl)phenyl)ethanone], the IC50 is reported as < 200 nM.
With `Cc1cccc(-c2cc(NC3CC3)nc(N)n2)c1C` [Example 114, 4-N-cyclopropyl-6-(2,3-dimethylphenyl)pyrimidine-2,4-diamine] the IC50 was < 200 nM.
For `CNc1cc(-c2c[nH]c3ccccc23)nc(N)n1` [Example 116, 6-(1H-indol-3-yl)-4-N-methylpyrimidine-2,4-diamine], the IC50 was < 200 nM.
For `Cc1cccc(-c2cc(NCCc3ccccc3)nc(N)n2)c1C` [Example 118, 6-(2,3-dimethylphenyl)-4-N-(2-phenylethyl)pyrimidine-2,4-diamine], the IC50 was < 200 nM.
In the case of `Cc1cccc(-c2nc(N)nc3c2CCCN3)c1C` [Example 121, 4-(2,3-dimethylphenyl)-5H,6H,7H,8H-pyrido[2,3-d]pyrimidin-2-amine], the IC50 is reported as < 200 nM.
In the case of `Nc1nc2c(c(-c3cccc(Cl)c3Cl)n1)CCCN2` [Example 122, 4-(2,3-dichlorophenyl)-5H,6H,7H,8H-pyrido[2,3-d]pyrimidin-2-amine], the IC50 is reported as < 200 nM.
`Nc1nc2c(c(-c3cn(S(=O)(=O)c4ccccc4)c4ccccc34)n1)CCCN2` [Example 123, 4-[1-(benzenesulfonyl)-1H-indol-3-yl]-5H,6H,7H,8H-pyrido[2,3-d]pyrimidin-2-amine] was tested, and the IC50 was < 200 nM.
With `CNc1cc(-c2cc(F)cc(F)c2)nc(N)n1` [Example 124, 6-(3,5-difluorophenyl)-4-N-methylpyrimidine-2,4-diamine] the IC50 was < 200 nM.
For `COc1ccc(CCNc2cc(-c3cccc(C)c3C)nc(N)n2)cc1` [Example 125, 6-(2,3-dimethylphenyl)-4-N-[2-(4-methoxyphenyl)ethyl]pyrimidine-2,4-diamine], the IC50 was < 200 nM.
`Cc1cccc(-c2cc(NCCc3ccc(Cl)cc3)nc(N)n2)c1C` [Example 128, 4-N-[2-(4-chlorophenyl)ethyl]-6-(2,3-dimethylphenyl)pyrimidine-2,4-diamine] was tested, and the IC50 was < 200 nM.
With `Cc1cccc(-c2cc(NCC(C)c3ccccc3)nc(N)n2)c1C` (stereo not drawn) [Example 130, 6-(2,3-dimethylphenyl)-4-N-(2-phenylpropyl)pyrimidine-2,4-diamine] the IC50 was < 200 nM.
With `Cc1cccc(-c2cc(NCCNc3ccccc3)nc(N)n2)c1C` [Example 133, 6-(2,3-dimethylphenyl)-4-N-[2-(phenylamino)ethyl]pyrimidine-2,4-diamine] the IC50 was < 200 nM.
For `Cc1cccc(-c2cc(NCCc3c[nH]c4ccccc34)nc(N)n2)c1C` [Example 134, 6-(2,3-dimethylphenyl)-4-N-[2-(1H-indol-3-yl)ethyl]pyrimidine-2,4-diamine], the IC50 was < 200 nM.
For `Cc1cccc(-c2cc(NCCN3CCNC3=O)nc(N)n2)c1C` [Example 136, 1-(2-{[2-amino-6-(2,3-dimethylphenyl)pyrimidin-4-yl]amino}ethyl)imidazolidin-2-one], the IC50 was < 200 nM.
With `Cc1cccc(-c2cc(NCCCN3CCCC3=O)nc(N)n2)c1C` [Example 137, 1-(3-{[2-amino-6-(2,3-dimethylphenyl)pyrimidin-4-yl]amino}propyl)pyrrolidin-2-one] the IC50 was < 200 nM.
In the case of `CNc1cc(-c2cc(C)c(O)c(C)c2)nc(N)n1` [Example 138, 4-[2-amino-6-(methylamino)pyrimidin-4-yl]-2,6-dimethylphenol], the IC50 is reported as < 200 nM.
`CNc1cc(-c2ccc(O)c(OC)c2)nc(N)n1` [Example 139, 4-[2-amino-6-(methylamino)pyrimidin-4-yl]-2-methoxyphenol] was tested, and the IC50 was < 200 nM.
For `CNc1cc(-c2ccc(O)c(F)c2)nc(N)n1` [Example 140, 4-[2-amino-6-(methylamino)pyrimidin-4-yl]-2-fluorophenol], the IC50 was < 200 nM.
`CNc1cc(-c2ccccc2C)nc(N)n1` [Example 143, 4-N-methyl-6-(2-methylphenyl)pyrimidine-2,4-diamine] was tested, and the IC50 was < 200 nM.
In the case of `CNc1cc(-c2ccc3[nH]ncc3c2C)nc(N)n1` [Example 145, 4-N-methyl-6-(4-methyl-1H-indazol-5-yl)pyrimidine-2,4-diamine], the IC50 is reported as < 200 nM.
`CNc1cc(-c2cccc(C)c2)nc(N)n1` [Example 147, 4-N-methyl-6-(3-methylphenyl)pyrimidine-2,4-diamine] was tested, and the IC50 was < 200 nM.
`Cc1ccc(S(=O)(=O)n2cc(-c3cc(NC4CCC4)nc(N)n3)c3ccccc32)cc1` [Example 152, 4-N-cyclobutyl-6-[1-(4-methylbenzenesulfonyl)-1H-indol-3-yl]pyrimidine-2,4-diamine] was tested, and the IC50 was < 200 nM.
`Cc1cccc(-c2cc(NC3CCCC3)nc(N)n2)c1C` [Example 153, 4-N-cyclopentyl-6-(2,3-dimethylphenyl)pyrimidine-2,4-diamine] was tested, and the IC50 was < 200 nM.
With `CNc1cc(-c2cn(S(=O)(=O)c3ccc(C(F)(F)F)cc3)c3ccccc23)nc(N)n1` [Example 155, 4-N-methyl-6-{1-[4-(trifluoromethyl)benzenesulfonyl]-1H-indol-3-yl}pyrimidine-2,4-diamine] the IC50 was < 200 nM.
In the case of `Cc1cccc(-c2cc(NC3CCCCC3)nc(N)n2)c1C` [Example 156, 4-N-cyclohexyl-6-(2,3-dimethylphenyl)pyrimidine-2,4-diamine], the IC50 is reported as < 200 nM.
For `CCNc1cc(-c2cccc(C)c2C)nc(N)n1` [Example 158, 6-(2,3-dimethylphenyl)-4-N-ethylpyrimidine-2,4-diamine], the IC50 was < 200 nM.
In the case of `Cc1ccc(S(=O)(=O)n2cc(-c3cc(NC(C)C)nc(N)n3)c3ccccc32)cc1` [Example 163, 6-[1-(4-methylbenzenesulfonyl)-1H-indol-3-yl]-4-N-(propan-2-yl)pyrimidine-2,4-diamine], the IC50 is reported as < 200 nM.
In the case of `CNc1cc(-c2coc3ccccc23)nc(N)n1` [Example 170, 6-(1-benzofuran-3-yl)-4-N-methylpyrimidine-2,4-diamine], the IC50 is reported as < 200 nM.
For `CNc1cc(-c2csc3ccccc23)nc(N)n1` [Example 172, 6-(1-benzothiophen-3-yl)-4-N-methylpyrimidine-2,4-diamine], the IC50 was < 200 nM.
For `CC(C)Nc1cc(-c2cccc(Cl)c2Cl)nc(N)n1` [Example 176, 6-(2,3-dichlorophenyl)-4-N-(propan-2-yl)pyrimidine-2,4-diamine], the IC50 was < 200 nM.
For `Nc1nc(NCC2CC2)cc(-c2cccc(Cl)c2Cl)n1` [Example 177, 4-N-(cyclopropylmethyl)-6-(2,3-dichlorophenyl)pyrimidine-2,4-diamine], the IC50 was < 200 nM.
